In patent US20240391882A1 (Mirati Therapeutics, Inc., priority 2023, published 2024):

Legend:
Assay type in all cases: cell-based
[1] = test system: T47D (PI3Kα H1047R mutant) cells; assay: Cell viability (CellTiter-Glo 2.0) in T47D cells; details: Homo sapiens, T47D, 72 h, approximately 72 hours
Summary of the method: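 IC50 values derive from four-parameter fits of CellTiter-Glo luminescence expressed as percent of vehicle control. Cells (T47D or SKBR3) were plated at 1000/well the day before dosing and incubated about 72 h at 37° C with a 10-point, 1:4 series starting at 10 μm.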

[2] = test system: SKBR3 (PI3Kα wild type) cells; assay: Cell viability (CellTiter-Glo 2.0) in SKBR3 cells; details: Homo sapiens, SK-BR-3; SKBR3 (PI3Kα wild type) cells, approximately 72 hours, CellTiter-Glo 2.0; read-out: SKBR3 (WT) Viability IC50
Procedure: This Example illustrates that representative compounds of the invention decrease the viability of cells.
The ability of a compound of Formula (I) to decrease the viability of cells was measured using CellTiter-Glo 2.0 (CTG) Luminescent Cell Viability Assay (#G9241) obtained from Promega (Madison, WI).
To prepare assay plates for viability assays, cells were trypsinized, resuspended in fresh media, and viable cells were counted utilizing trypan blue exclusion. T47D, SKBR3, or MKN1 cells were seeded at 1000 cells in 30 μl per well in a solid white flat bottom 384 cell culture plate (Perkin Elmer #6007680) and incubated at 37° C. overnight.
Assay day 1, cells were dosed using an Echo Liquid Handler (Beckman Coulter) with compounds at a 10 μm starting concentration and serially diluted (1:4) for a total of 10 concentrations. Cells were incubated for approximately 72 hours with the compounds (solubilized in DMSO) at 37° C. After 72 hours of treatment, cell plates were equilibrated to room temperature before adding 15 μl of CTG to each well, plates were then covered in aluminum foil to protect from light, incubated at room temperature for 30 minutes on a microtiter plate shaker, and luminescence readings were collected using a CLARIOstar microplate reader (BMG Labtech, Germany). Percent of vehicle control values were plotted as log(inhibitor) vs. response—Variable slope (four parameters) for curve fitting and IC50 values were determined using XLfit.

[3] = test system: pAKT in T47D (PI3Kα H1047R mutant) cells; assay: Inhibition of pAKT (alphaLISA Surefire Ultra AKT 1/2/3 pS473) in T47D cells; details: Homo sapiens; T47D (PI3Kα H1047R mutant) cells, 24 hr compound incubation, alphaLISA pS473; read-out: T47D (H1047R) pAKT 24 hr (IC50)
Summary of the method: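 AlphaLISA read-out of AKT pS473 in lysates after roughly 24 h compound exposure at 37° C in HBSS. Ten concentrations, 1:4 dilutions from a 10.4 μm top dose. Percent of control uses alpelisib at 3.125 μm as background and DMSO as vehicle; four-parameter curve gives IC50.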

SMILES | IC50 [1] [nM] | IC50 [2] [nM] | IC50 [3] [nM]
Cc1cc([C@@H](C)Nc2ccc(Cl)nc2C(=O)O)c2nc(N3C[C@@H]4C[C@H]3CC4(F)F)c(C#N)nc2c1 (single isomer, unassigned) [Example 8] | 34.1 | 3620 | 7.7
Cc1cc([C@@H](C)Nc2ccc(Cl)nc2C(=O)O)c2nc(N3C[C@H]4C[C@@H]3CC4(F)F)c(C#N)nc2c1 (single isomer, unassigned) [Example 9] | 65.1 | 3400 | 7.5
Cc1cc([C@@H](C)Nc2ccc(Cl)nc2C(=O)O)c2nc(N3CC4C[C@@]4(C(F)(F)F)C3)c(C#N)nc2c1 (single isomer, unassigned) [Example 43A] | 99 | > 10000 | 4.8
Cc1cc([C@@H](C)Nc2ccc(Cl)nc2C(=O)O)c2nc(N3CC4C[C@]4(C(F)(F)F)C3)c(C#N)nc2c1 (single isomer, unassigned) [Example 43B] | 271 | 4030 | 16.8
Cc1cc([C@@H](C)Nc2ccccc2C(=O)O)c2nc(NC[C@]3(C)CC3(F)F)c(C#N)nc2c1 (single isomer, unassigned) [Example 75A] | 701 | > 10000 | 52
Cc1cc([C@@H](C)Nc2ccccc2C(=O)O)c2nc(NC[C@@]3(C)CC3(F)F)c(C#N)nc2c1 (single isomer, unassigned) [Example 75B] | 720 | > 10000 | 39
CO[C@H](C)C1CCN(c2nc3c([C@@H](C)Nc4ccc(Cl)nc4C(=O)O)cc(C)cc3nc2C#N)CC1 (single isomer, unassigned) [Example 195A] | 84.1 | > 10000 | 0.47
Cc1cc([C@@H](C)Nc2ccc(Cl)nc2C(=O)O)c2nc(N3CCC(F)(F)[C@H](C)C3)c(C#N)nc2c1 [Example 78A, 6-chloro-3-(((R)-1-(2-cyano-3-((R)-4,4-difluoro-3-methylpiperidin-1-yl)-7-methylquinoxalin-5-yl)ethyl)amino)picolinic acid] | 126 | 7060 | 
Cc1cc([C@@H](C)Nc2ccc(Cl)nc2C(=O)O)c2nc(N3CCC(F)(F)[C@@H](C)C3)c(C#N)nc2c1 [Example 78B, 6-chloro-3-(((R)-1-(2-cyano-3-((S)-4,4-difluoro-3-methylpiperidin-1-yl)-7-methylquinoxalin-5-yl)ethyl)amino)picolinic acid] | 84.4 | > 10000 | 
Cc1cc([C@@H](C)Nc2ccccc2C(=O)O)c2nc(N3CCC(F)(F)[C@@H](C)C3)c(C#N)nc2c1 [Example 79A, 2-(((R)-1-(2-cyano-3-((S)-4,4-difluoro-3-methylpiperidin-1-yl)-7-methylquinoxalin-5-yl)ethyl)amino)benzoic acid] | 252 | > 10000 | 
Cc1cc([C@@H](C)Nc2ccccc2C(=O)O)c2nc(N3CCC(F)(F)[C@H](C)C3)c(C#N)nc2c1 [Example 79B, 2-(((R)-1-(2-cyano-3-((R)-4,4-difluoro-3-methylpiperidin-1-yl)-7-methylquinoxalin-5-yl)ethyl)amino)benzoic acid] | 176 | > 10000 | 
Cc1cc([C@@H](C)Nc2ccc(Cl)nc2C(=O)O)c2nc(N3CCc4ccccc4C3)c(C#N)nc2c1 [Example 83, (R)-6-chloro-3-((1-(2-cyano-3-(3,4-dihydroisoquinolin-2(1H)-yl)-7-methylquinoxalin-5-yl)ethyl)amino)picolinic acid] | 60.7 | > 10000 | 
Cc1cc([C@@H](C)Nc2ccccc2C(=O)O)c2nc(N3CCc4ccccc4C3)c(C#N)nc2c1 [Example 84, (R)-2-((1-(2-cyano-3-(3,4-dihydroisoquinolin-2(1H)-yl)-7-methylquinoxalin-5-yl)ethyl)amino)benzoic acid] | 343 | > 10000 | 
Cc1cc([C@@H](C)Nc2ccccc2C(=O)O)c2nc(N3CCc4cc(C#N)ccc4C3)c(C#N)nc2c1 [Example 86, (R)-2-((1-(2-cyano-3-(6-cyano-3,4-dihydroisoquinolin-2(1H)-yl)-7-methylquinoxalin-5-yl)ethyl)amino)benzoic acid] | 270 | > 10000 | 
Cc1cc([C@@H](C)Nc2ccc(Cl)nc2C(=O)O)c2nc(N3CCc4cc(F)ccc4C3)c(C#N)nc2c1 [Example 87, (R)-6-chloro-3-((1-(2-cyano-3-(6-fluoro-3,4-dihydroisoquinolin-2(1H)-yl)-7-methylquinoxalin-5-yl)ethyl)amino)picolinic acid] | 88.7 | 9250 | 
Cc1cc([C@@H](C)Nc2ccccc2C(=O)O)c2nc(N3CCc4cc(F)ccc4C3)c(C#N)nc2c1 [Example 88, (R)-2-((1-(2-cyano-3-(6-fluoro-3,4-dihydroisoquinolin-2(1H)-yl)-7-methylquinoxalin-5-yl)ethyl)amino)benzoic acid] | 365 | > 10000 | 
Cc1cc([C@@H](C)Nc2ccccc2C(=O)O)c2nc(N3CCc4ccncc4C3)c(C#N)nc2c1 [Example 89, (R)-2-((1-(2-cyano-3-(3,4-dihydro-2,7-naphthyridin-2(1H)-yl)-7-methylquinoxalin-5-yl)ethyl)amino)benzoic acid] | 63.2 | > 10000 | 
Cc1cc([C@@H](C)Nc2ccc(Cl)nc2C(=O)O)c2nc(N3CCC(S(C)(=O)=O)CC3)c(C#N)nc2c1 [Example 106, (R)-6-chloro-3-((1-(2-cyano-7-methyl-3-(4-(methylsulfonyl)piperidin-1-yl)quinoxalin-5-yl)ethyl)amino)picolinic acid] | 98.1 | > 10000 | 
Cc1cc([C@@H](C)Nc2ccc(Cl)nc2C(=O)O)c2nc(N3CC[S+]([O-])CC3)c(C#N)nc2c1 [Example 107, (R)-6-chloro-3-((1-(2-cyano-7-methyl-3-(1-oxidothiomorpholino)quinoxalin-5-yl)ethyl)amino)picolinic acid] | 216 | > 10000 | 
Cc1cc([C@@H](C)Nc2ccccc2-c2nnn[nH]2)c2nc(N3CCOCC3)c(C#N)nc2c1 [Example 852, (R)-5-(1-((2-(1H-tetrazol-5-yl)phenyl)amino)ethyl)-7-methyl-3-morpholinoquinoxaline-2-carbonitrile] | 1440 | > 10000 | 
Cc1cc([C@@H](C)Nc2ccccc2C#N)c2nc(N3CCOCC3)c(C#N)nc2c1 [Example 853, (R)-5-(1-((2-cyanophenyl)amino)ethyl)-7-methyl-3-morpholinoquinoxaline-2-carbonitrile] | 4340 | > 10000 | 
Cc1cc([C@@H](C)Nc2ccc(Cl)nc2-c2nnn[nH]2)c2nc(N3CCOCC3)c(C#N)nc2c1 [Example 854, (R)-5-(1-((6-chloro-2-(1H-tetrazol-5-yl)pyridin-3-yl)amino)ethyl)-7-methyl-3-morpholinoquinoxaline-2-carbonitrile] | 52 | 4380 | 
Cc1cc([C@@H](C)Nc2ccc(Cl)nc2C#N)c2nc(N3CCOCC3)c(C#N)nc2c1 [Example 855, (R)-5-(1-((6-chloro-2-cyanopyridin-3-yl)amino)ethyl)-7-methyl-3-morpholinoquinoxaline-2-carbonitrile] | 1080 | 6900 | 
CNC(=O)c1ccccc1N[C@H](C)c1cc(C)cc2nc(C#N)c(N3CCOCC3)nc12 [Example 856, (R)-2-((1-(2-cyano-7-methyl-3-morpholinoquinoxalin-5-yl)ethyl)amino)-N-methylbenzamide] | 3440 | 3560 | 
